# Key:
# Aurora-B = target: T1, Aurora-B (Homo sapiens, UniProt Q96GD4); assay: Eurofins Kinase Profiler panel; type: biochemical
# T1 construct: Eurofins Pharma Discovery Services UK Limited (Kinase Profiler service)
# [1] = test system: cytokine gene transcription in joint tissue of CIA mice; assay: Cytokine gene expression in joints of CIA mice by RT-PCR; type: in vivo, mouse
# IKKα = target: T2, IKKα (Homo sapiens, UniProt O15111); assay: Eurofins Kinase Profiler panel; type: biochemical; details: read-out: % inhibition (1μM), DMSO control=100%, lower=stronger
# T2 construct: purchased Eurofins KinaseProfiler (Eurofins Pharma Discovery Services UK, Dundee); JAK3 also ChemPartner
# Fms = target: T3, Fms (Homo sapiens, UniProt P07333); assay: Eurofins Kinase Profiler panel; type: biochemical; details: read-out: % inhibition (1μM), DMSO control=100%, lower=stronger
# T3 construct: purchased Eurofins Pharma Discovery Services UK Limited (Kinase Profiler screening platform)
# BALB/c mice = assay: Acute oral toxicity and haematology analysis in BALB/c mice; details: for HCT / HGB / LY / MCH / MCHC / MCV / MO / PLT / RBC / WBC: Balb/c mice
# BTK = target: T4, BTK (Homo sapiens, UniProt Q06187); assay: Cys-containing kinase family panel (EurofinsCerep); type: biochemical
# T4 construct: EurofinsCerep (contract assay service)
# Src = target: T5, Src (Homo sapiens, UniProt P12931); assay: Eurofins Kinase Profiler panel; type: biochemical; details: read-out: % inhibition (1μM), DMSO control=100%, lower=stronger
# T5 construct: purchased Eurofins KinaseProfiler (Eurofins Pharma Discovery Services UK, Dundee); JAK3 also ChemPartner
# Description: (§1) The assay protocol guides are commercially available from ChemPartner.
# TrkB = target: T6, TrkB (Homo sapiens, UniProt Q16620); assay: Eurofins Kinase Profiler panel; type: biochemical; details: read-out: % inhibition (1μM), DMSO control=100%, lower=stronger
# T6 construct: purchased Eurofins Pharma Discovery Services UK Limited (Kinase Profiler screening platform)
# Description: as §1
# Flt1 = target: T7, Flt1 (Homo sapiens, UniProt P17948); assay: Eurofins Kinase Profiler panel; type: biochemical; details: read-out: % inhibition (1μM), DMSO control=100%, lower=stronger
# T7 construct: purchased Eurofins Pharma Discovery Services UK Limited (Kinase Profiler screening platform)
# Description: as §1
# Ret = target: T8, Ret (Homo sapiens, UniProt P07949); assay: Eurofins Kinase Profiler panel; type: biochemical; details: read-out: % inhibition (1μM), DMSO control=100%, lower=stronger
# T8 construct: purchased Eurofins KinaseProfiler (Eurofins Pharma Discovery Services UK, Dundee); JAK3 also ChemPartner
# Description: as §1
# PKCθ = target: T9, PKCθ (Homo sapiens, UniProt Q04759); assay: Eurofins Kinase Profiler panel; type: biochemical; details: read-out: % inhibition (1μM), DMSO control=100%, lower=stronger
# T9 construct: purchased Eurofins KinaseProfiler (Eurofins Pharma Discovery Services UK, Dundee); JAK3 also ChemPartner
# Description: as §1
# CaMKIIβ = target: T10, CaMKIIβ (Homo sapiens, UniProt Q13554); assay: Eurofins Kinase Profiler panel; type: biochemical; details: read-out: % inhibition (1μM), DMSO control=100%, lower=stronger
# T10 construct: purchased Eurofins KinaseProfiler (Eurofins Pharma Discovery Services UK, Dundee); JAK3 also ChemPartner
# Description: as §1
# MSK1 = target: T11, MSK1 (Homo sapiens, UniProt O75582); assay: Eurofins Kinase Profiler panel; type: biochemical; details: read-out: % inhibition (1μM), DMSO control=100%, lower=stronger
# T11 construct: purchased Eurofins Pharma Discovery Services UK Limited (Kinase Profiler screening platform)
# Description: as §1
# CK1 = assay: Eurofins Kinase Profiler panel; type: biochemical; details: read-out: % inhibition (1μM), DMSO control=100%, lower=stronger
# Description: as §1
# SAPK3 = target: T12, SAPK3 (Homo sapiens, UniProt P53778); assay: Eurofins Kinase Profiler panel; type: biochemical; details: read-out: % inhibition (1μM), DMSO control=100%, lower=stronger
# T12 construct: purchased Eurofins KinaseProfiler (Eurofins Pharma Discovery Services UK, Dundee); JAK3 also ChemPartner
# Description: as §1
# CDK9 = target: T13, CDK9 (Homo sapiens, UniProt P50750); assay: Eurofins Kinase Profiler panel; type: biochemical; details: read-out: % inhibition (1μM), DMSO control=100%, lower=stronger
# T13 construct: purchased Eurofins KinaseProfiler (Eurofins Pharma Discovery Services UK, Dundee); JAK3 also ChemPartner
# Description: as §1
# PKA = target: T14, PKA (Homo sapiens, UniProt P17612); assay: Eurofins Kinase Profiler panel; type: biochemical; details: read-out: % inhibition (1μM), DMSO control=100%, lower=stronger
# T14 construct: purchased Eurofins KinaseProfiler (Eurofins Pharma Discovery Services UK, Dundee); JAK3 also ChemPartner
# Description: as §1
# TAO1 = target: T15, TAO1 (Homo sapiens, UniProt Q7L7X3); assay: Eurofins Kinase Profiler panel; type: biochemical; details: read-out: % inhibition (1μM), DMSO control=100%, lower=stronger
# T15 construct: Eurofins Pharma Discovery Services UK Limited (Kinase Profiler service)
# Description: as §1
# Pim-1 = target: T16, Pim-1 (Homo sapiens, UniProt P11309); assay: Eurofins Kinase Profiler panel; type: biochemical; details: read-out: % inhibition (1μM), DMSO control=100%, lower=stronger
# T16 construct: purchased Eurofins Pharma Discovery Services UK Limited (Kinase Profiler screening platform)
# Description: as §1
# DDR1 = target: T17, DDR1 (Homo sapiens, UniProt Q08345); assay: Eurofins Kinase Profiler panel; type: biochemical; details: read-out: % inhibition (1μM), DMSO control=100%, lower=stronger
# T17 construct: purchased Eurofins KinaseProfiler (Eurofins Pharma Discovery Services UK, Dundee); JAK3 also ChemPartner
# Description: as §1
# PDGFRα = target: T18, PDGFRα (Homo sapiens, UniProt P16234); assay: Eurofins Kinase Profiler panel; type: biochemical; details: read-out: % inhibition (1μM), DMSO control=100%, lower=stronger
# T18 construct: purchased Eurofins Pharma Discovery Services UK Limited (Kinase Profiler screening platform)
# Description: as §1
# CaMKI = target: T19, CaMKI (Homo sapiens, UniProt Q14012); assay: Eurofins Kinase Profiler panel; type: biochemical; details: read-out: % inhibition (1μM), DMSO control=100%, lower=stronger
# T19 construct: purchased Eurofins KinaseProfiler (Eurofins Pharma Discovery Services UK, Dundee); JAK3 also ChemPartner
# Description: as §1
# JNK1α1 = target: T20, JNK1α1 (Homo sapiens, UniProt P45983); assay: Eurofins Kinase Profiler panel; type: biochemical; details: read-out: % inhibition (1μM), DMSO control=100%, lower=stronger
# T20 construct: purchased Eurofins KinaseProfiler (Eurofins Pharma Discovery Services UK, Dundee); JAK3 also ChemPartner
# [2] = test system: GM-CSF-induced JAK/STAT5 phosphorylation in TF-1 cells (JAK2); assay: STAT5 phosphorylation induced by GM-CSF in TF-1 cells, Western blot
# Lyn = target: T21, Lyn (Homo sapiens, UniProt P07948); assay: Eurofins Kinase Profiler panel; type: biochemical; details: read-out: % inhibition (1μM), DMSO control=100%, lower=stronger
# T21 construct: purchased Eurofins KinaseProfiler (Eurofins Pharma Discovery Services UK, Dundee); JAK3 also ChemPartner
# MAPKAP-K2 = target: T22, MAPKAP-K2 (Homo sapiens, UniProt P49137); assay: Eurofins Kinase Profiler panel; type: biochemical; details: read-out: % inhibition (1μM), DMSO control=100%, lower=stronger
# T22 construct: purchased Eurofins KinaseProfiler (Eurofins Pharma Discovery Services UK, Dundee); JAK3 also ChemPartner
# GCK = target: T23, GCK (Homo sapiens, UniProt Q12851); assay: Eurofins Kinase Profiler panel; type: biochemical; details: read-out: % inhibition (1μM), DMSO control=100%, lower=stronger
# T23 construct: purchased Eurofins Pharma Discovery Services UK Limited (Kinase Profiler screening platform)
# [3] = test system: panel of 81 representative kinases; details: 1 μM
# BMX = target: T24, BMX (Homo sapiens, UniProt P51813); assay: Cys-containing kinase family panel (EurofinsCerep); type: biochemical
# T24 construct: EurofinsCerep (contract assay service)
# T24 sequence (P51813 whole entry): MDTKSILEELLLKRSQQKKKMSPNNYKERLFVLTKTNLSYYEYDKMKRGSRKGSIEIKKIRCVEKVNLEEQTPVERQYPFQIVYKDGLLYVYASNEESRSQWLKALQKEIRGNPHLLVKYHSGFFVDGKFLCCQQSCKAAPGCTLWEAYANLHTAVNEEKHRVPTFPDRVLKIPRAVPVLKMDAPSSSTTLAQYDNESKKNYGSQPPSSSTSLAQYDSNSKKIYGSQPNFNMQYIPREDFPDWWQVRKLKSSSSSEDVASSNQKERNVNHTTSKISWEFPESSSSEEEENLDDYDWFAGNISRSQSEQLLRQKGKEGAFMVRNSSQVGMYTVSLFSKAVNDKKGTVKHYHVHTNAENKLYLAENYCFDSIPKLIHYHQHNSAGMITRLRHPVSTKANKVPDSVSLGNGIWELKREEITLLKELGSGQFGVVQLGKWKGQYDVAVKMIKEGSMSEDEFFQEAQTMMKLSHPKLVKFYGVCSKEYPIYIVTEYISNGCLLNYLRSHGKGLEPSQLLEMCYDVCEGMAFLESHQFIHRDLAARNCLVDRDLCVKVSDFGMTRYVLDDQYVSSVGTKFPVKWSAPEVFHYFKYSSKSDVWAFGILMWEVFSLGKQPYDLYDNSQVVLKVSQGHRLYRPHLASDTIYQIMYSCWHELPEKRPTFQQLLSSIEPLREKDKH
# T1 sequence (Q96GD4 whole entry): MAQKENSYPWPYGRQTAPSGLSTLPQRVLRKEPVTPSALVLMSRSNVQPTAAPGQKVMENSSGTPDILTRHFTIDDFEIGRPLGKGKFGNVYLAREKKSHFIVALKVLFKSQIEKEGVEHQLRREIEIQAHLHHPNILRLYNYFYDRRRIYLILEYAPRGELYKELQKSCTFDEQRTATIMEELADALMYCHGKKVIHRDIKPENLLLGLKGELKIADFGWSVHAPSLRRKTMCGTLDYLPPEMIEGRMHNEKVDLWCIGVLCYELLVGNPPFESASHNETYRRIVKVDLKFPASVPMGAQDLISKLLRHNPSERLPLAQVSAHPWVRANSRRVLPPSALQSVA
# T8 sequence (P07949 29-1114): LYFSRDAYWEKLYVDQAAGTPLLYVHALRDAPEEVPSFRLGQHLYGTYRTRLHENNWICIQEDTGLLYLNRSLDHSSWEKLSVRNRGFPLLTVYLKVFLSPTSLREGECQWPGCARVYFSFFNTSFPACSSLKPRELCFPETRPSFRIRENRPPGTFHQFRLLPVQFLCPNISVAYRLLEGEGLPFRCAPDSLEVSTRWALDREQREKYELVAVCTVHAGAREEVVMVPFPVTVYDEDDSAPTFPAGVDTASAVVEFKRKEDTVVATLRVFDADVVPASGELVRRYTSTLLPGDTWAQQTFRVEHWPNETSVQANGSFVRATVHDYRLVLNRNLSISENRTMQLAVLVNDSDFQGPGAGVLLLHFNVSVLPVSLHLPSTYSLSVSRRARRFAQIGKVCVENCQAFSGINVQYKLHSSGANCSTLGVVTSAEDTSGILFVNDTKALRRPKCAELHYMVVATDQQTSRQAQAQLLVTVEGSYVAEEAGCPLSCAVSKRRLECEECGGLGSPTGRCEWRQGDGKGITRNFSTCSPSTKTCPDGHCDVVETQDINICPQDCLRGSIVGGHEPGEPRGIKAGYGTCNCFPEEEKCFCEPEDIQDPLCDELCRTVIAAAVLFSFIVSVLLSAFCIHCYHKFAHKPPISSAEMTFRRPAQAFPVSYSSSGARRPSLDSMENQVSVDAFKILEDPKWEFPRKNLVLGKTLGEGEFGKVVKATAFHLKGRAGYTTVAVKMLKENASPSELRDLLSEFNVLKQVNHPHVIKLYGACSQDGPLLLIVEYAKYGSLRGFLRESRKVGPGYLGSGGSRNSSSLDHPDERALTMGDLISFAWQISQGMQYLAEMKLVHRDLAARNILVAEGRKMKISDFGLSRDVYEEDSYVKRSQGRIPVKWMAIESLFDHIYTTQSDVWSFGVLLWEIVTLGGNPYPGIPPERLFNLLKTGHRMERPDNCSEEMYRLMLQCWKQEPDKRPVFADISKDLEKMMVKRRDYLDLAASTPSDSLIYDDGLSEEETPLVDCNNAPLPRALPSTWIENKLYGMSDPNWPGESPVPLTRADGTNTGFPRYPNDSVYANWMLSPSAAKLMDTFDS
# T21 sequence (P07948 whole entry): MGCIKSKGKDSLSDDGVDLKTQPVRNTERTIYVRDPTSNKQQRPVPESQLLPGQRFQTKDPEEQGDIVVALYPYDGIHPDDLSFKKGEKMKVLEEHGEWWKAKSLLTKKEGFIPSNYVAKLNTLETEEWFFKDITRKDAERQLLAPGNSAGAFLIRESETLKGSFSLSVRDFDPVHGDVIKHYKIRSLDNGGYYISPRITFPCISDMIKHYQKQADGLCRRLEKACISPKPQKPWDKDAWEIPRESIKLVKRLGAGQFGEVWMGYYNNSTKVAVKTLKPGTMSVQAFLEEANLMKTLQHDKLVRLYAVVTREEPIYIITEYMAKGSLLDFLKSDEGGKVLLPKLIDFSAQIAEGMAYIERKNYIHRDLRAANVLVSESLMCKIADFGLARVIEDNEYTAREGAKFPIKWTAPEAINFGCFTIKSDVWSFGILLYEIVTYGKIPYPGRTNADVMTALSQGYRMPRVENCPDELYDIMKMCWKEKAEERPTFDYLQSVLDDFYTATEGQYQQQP
# T5 sequence (P12931 whole entry): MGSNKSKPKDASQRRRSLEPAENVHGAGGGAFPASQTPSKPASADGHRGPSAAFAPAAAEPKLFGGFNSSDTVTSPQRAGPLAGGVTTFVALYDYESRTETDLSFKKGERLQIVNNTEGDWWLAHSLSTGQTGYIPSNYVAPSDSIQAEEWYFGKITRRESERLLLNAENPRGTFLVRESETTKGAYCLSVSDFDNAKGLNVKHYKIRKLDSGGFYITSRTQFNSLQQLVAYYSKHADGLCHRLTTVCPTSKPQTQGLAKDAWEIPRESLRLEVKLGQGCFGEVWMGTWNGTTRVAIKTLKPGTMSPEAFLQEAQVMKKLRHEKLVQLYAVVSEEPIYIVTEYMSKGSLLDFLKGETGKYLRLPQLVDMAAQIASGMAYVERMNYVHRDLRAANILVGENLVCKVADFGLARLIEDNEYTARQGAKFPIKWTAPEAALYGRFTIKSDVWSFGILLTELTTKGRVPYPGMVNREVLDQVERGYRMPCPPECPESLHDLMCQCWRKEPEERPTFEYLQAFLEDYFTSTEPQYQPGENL
# T11 sequence (O75582 whole entry): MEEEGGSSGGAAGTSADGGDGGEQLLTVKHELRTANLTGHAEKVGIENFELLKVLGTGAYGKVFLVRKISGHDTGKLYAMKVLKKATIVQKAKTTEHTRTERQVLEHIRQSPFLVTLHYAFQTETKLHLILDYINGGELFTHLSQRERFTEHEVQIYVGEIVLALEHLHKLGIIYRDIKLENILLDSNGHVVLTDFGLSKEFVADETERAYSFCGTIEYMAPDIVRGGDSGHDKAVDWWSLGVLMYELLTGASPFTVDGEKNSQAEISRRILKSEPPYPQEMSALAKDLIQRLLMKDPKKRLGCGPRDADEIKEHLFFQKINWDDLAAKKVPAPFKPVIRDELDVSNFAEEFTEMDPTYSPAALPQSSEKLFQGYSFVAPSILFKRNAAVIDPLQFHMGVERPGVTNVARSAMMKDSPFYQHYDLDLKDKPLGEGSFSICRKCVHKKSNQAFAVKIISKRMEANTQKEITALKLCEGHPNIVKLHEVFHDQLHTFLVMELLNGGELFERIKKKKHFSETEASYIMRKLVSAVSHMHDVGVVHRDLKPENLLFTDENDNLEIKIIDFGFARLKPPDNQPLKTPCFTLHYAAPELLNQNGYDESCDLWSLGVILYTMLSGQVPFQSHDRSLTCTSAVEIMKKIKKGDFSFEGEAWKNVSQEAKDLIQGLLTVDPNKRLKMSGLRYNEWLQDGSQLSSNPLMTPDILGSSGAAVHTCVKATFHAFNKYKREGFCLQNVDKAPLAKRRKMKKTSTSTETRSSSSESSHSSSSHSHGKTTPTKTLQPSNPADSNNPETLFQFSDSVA
# T3 sequence (P07333 20-972): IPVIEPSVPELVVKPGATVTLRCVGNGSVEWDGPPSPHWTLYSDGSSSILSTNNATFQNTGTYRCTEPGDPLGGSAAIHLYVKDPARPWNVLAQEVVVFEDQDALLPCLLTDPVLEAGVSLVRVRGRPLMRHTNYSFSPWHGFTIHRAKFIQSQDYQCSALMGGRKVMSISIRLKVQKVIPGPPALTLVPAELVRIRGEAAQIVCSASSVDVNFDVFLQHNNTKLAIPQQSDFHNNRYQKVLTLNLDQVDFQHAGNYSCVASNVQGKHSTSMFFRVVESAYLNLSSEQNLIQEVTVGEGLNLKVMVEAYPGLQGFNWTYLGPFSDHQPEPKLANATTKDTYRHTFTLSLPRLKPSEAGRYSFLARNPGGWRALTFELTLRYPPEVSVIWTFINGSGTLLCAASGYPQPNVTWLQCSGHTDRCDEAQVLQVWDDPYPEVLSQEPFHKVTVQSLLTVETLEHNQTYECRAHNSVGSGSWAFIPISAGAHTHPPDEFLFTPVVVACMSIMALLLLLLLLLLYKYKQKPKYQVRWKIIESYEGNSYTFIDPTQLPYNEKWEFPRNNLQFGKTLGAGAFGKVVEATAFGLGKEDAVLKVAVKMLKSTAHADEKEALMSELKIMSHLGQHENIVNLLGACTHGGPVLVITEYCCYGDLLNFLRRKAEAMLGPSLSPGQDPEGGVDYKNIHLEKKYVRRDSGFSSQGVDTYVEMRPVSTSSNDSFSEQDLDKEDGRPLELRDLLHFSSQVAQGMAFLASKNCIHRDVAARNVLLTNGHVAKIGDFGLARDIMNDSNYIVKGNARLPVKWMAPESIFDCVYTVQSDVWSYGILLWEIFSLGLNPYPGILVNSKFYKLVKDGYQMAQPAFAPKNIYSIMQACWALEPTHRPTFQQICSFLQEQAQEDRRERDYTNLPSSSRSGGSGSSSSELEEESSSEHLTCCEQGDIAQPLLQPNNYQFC
smiles,measurement,setting,value
C=CC(=O)N[C@@H]1CCCN(c2ncnc3[nH]ccc23)C1 [RB1],IC50,Aurora-B; estimated,> 0.8 µM
same,activity at 1 µM,"Aurora-B; read-out: % inhibition (1μM), 1 µM, DMSO control=100%, lower=stronger",12%
same,IL-10 expression,[1],significantly increased its expression
same,"gene transcription levels of IL-1, IL-2 and IL-6",[1],dose-dependently reduced
same,TNF-α and IFN-γ gene transcription levels,[1]; p < 0.01,significantly reduced
same,activity at 1 µM,IKKα,97%
same,activity at 1 µM,Fms,90%
same,acute haematological toxicity in WBC and lymphocyte counts,"BALB/c mice; BALB/c mice, oral, even at 1000 mg/kg, after 14 days",did not induce significant acute haematological toxicity
same,"acute oral toxicity, adverse effects","BALB/c mice; BALB/c mice, single doses, 14-days recovery time",no obvious adverse results
same,HCT,BALB/c mice; oral 100 mg/kg,46.94 ± 1.80%
same,HGB,BALB/c mice; oral 100 mg/kg,168.12 ± 7.36 g/L
same,LY,BALB/c mice; oral 100 mg/kg,65.93 ± 3.09%
same,MCH,BALB/c mice; oral 100 mg/kg,16.13 ± 0.12 pg
same,MCHC,BALB/c mice; oral 100 mg/kg,369.77 ± 2.01 g/L
same,MCV,BALB/c mice; oral 100 mg/kg,48.98 ± 0.22 fL
same,MO,BALB/c mice; oral 100 mg/kg,6.99 ± 1.26%
same,PLT,BALB/c mice; oral 100 mg/kg,385.34 ± 43.61 1×109/L
same,RBC,BALB/c mice; oral 100 mg/kg,9.20 ± 0.31 1×1012/L
same,WBC,BALB/c mice; oral 100 mg/kg,9.12 ± 0.98 1×109/L
same,HCT,BALB/c mice; oral 300 mg/kg,44.82 ± 1.77%
same,HGB,BALB/c mice; oral 300 mg/kg,158.49 ± 6.40 g/L
same,LY,BALB/c mice; oral 300 mg/kg,75.04 ± 3.17%
same,MCH,BALB/c mice; oral 300 mg/kg,15.98 ± 0.22 pg
same,MCHC,BALB/c mice; oral 300 mg/kg,360.54 ± 3.84 g/L
same,MCV,BALB/c mice; oral 300 mg/kg,50.03 ± 0.08 fL
same,MO,BALB/c mice; oral 300 mg/kg,6.50 ± 0.86%
same,PLT,BALB/c mice; oral 300 mg/kg,360.12 ± 33.74 1×109/L
same,RBC,BALB/c mice; oral 300 mg/kg,9.90 ± 0.22 1×1012/L
same,WBC,BALB/c mice; oral 300 mg/kg,8.64 ± 1.05 1×109/L
same,HCT,BALB/c mice; oral 1000 mg/kg,43.53 ± 1.68%
same,HGB,BALB/c mice; oral 1000 mg/kg,150.33 ± 6.94 g/L
same,LY,BALB/c mice; oral 1000 mg/kg,69.43 ± 1.88%
same,MCH,BALB/c mice; oral 1000 mg/kg,16.08 ± 0.09 pg
same,MCHC,BALB/c mice; oral 1000 mg/kg,355.00 ± 2.16 g/L
same,MCV,BALB/c mice; oral 1000 mg/kg,49.82 ± 0.12 fL
same,MO,BALB/c mice; oral 1000 mg/kg,8.23 ± 1.08%
same,PLT,BALB/c mice; oral 1000 mg/kg,327.67 ± 46.45 1×109/L
same,RBC,BALB/c mice; oral 1000 mg/kg,10.44 ± 0.16 1×1012/L
same,WBC,BALB/c mice; oral 1000 mg/kg,9.33 ± 1.12 1×109/L
same,inhibition at 1 µM,BTK,-0.95%
same,activity at 1 µM,Src,102%
same,activity at 1 µM,TrkB,38%
same,activity at 1 µM,Flt1,93%
same,activity at 1 µM,Ret,86%
same,activity at 1 µM,PKCθ,80%
same,activity at 1 µM,CaMKIIβ,85%
same,activity at 1 µM,MSK1,74%
same,activity,CK1,82%
same,activity at 1 µM,SAPK3,94%
same,activity at 1 µM,CDK9,101%
same,activity at 1 µM,PKA,85%
same,activity at 1 µM,TAO1,70%
same,activity at 1 µM,Pim-1,62%
same,activity at 1 µM,DDR1,75%
same,activity at 1 µM,PDGFRα,96%
same,activity at 1 µM,CaMKI,96%
same,activity at 1 µM,JNK1α1,101%
same,Selectivity JAK2/JAK3,"[2]; GM-CSF, pSTAT5",> 1000
same,IC50,[2]; Homo sapiens,> 50 µM
same,activity at 1 µM,Lyn,118%
same,activity at 1 µM,MAPKAP-K2,97%
same,activity at 1 µM,GCK,80%
same,selectivity score S(1),[3]; kinases with ctrl% < 1% / kinases tested,0.012
same,selectivity score S(10),[3]; kinases with ctrl% < 10% / kinases tested,0.012
same,selectivity score S(35),[3]; kinases with ctrl% < 35% / kinases tested,0.086
same,inhibition at 1 µM,BMX,4%
